Source: PubChem BioAssay (NCI)
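1) Cells in 96-well plates. 2) Compound, 48 h, 5 concentrations. 3) Linear interpolation between surrounding doses. 4) Unreached endpoint = highest concentration. TGI denotes the concentration required for complete inhibition of growth.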

What was measured:
Assay in all cases: NCI-60 cell line screen, 48 h
NCI-H460 lung = system: NCI-H460 lung
HCT-116 colon = system: HCT-116 colon
EKVX NSCLC = system: EKVX NSCLC
DU-145 prostate = system: DU-145 prostate
HL-60(TB) leukemia = system: HL-60(TB) leukemia
SN12C renal = system: SN12C renal
SF-295 CNS = system: SF-295 CNS
U251 CNS = system: U251 CNS
SK-MEL-2 melanoma = system: SK-MEL-2 melanoma
SK-MEL-5 melanoma = system: SK-MEL-5 melanoma
OVCAR-8 ovarian = system: OVCAR-8 ovarian
IGROV1 ovarian = system: IGROV1 ovarian
SF-539 CNS = system: SF-539 CNS
PC-3 prostate = system: PC-3 prostate
HCT-15 colon = system: HCT-15 colon
SK-OV-3 ovarian = system: SK-OV-3 ovarian

Compound	TGI (NCI-H460 lung) [µM]	TGI (HCT-116 colon) [µM]	TGI (EKVX NSCLC) [µM]	TGI (DU-145 prostate) [µM]	TGI (HL-60(TB) leukemia) [µM]	TGI (SN12C renal) [µM]	TGI (SF-295 CNS) [µM]	TGI (U251 CNS) [µM]	TGI (SK-MEL-2 melanoma) [µM]	TGI (SK-MEL-5 melanoma) [µM]	TGI (OVCAR-8 ovarian) [µM]	TGI (IGROV1 ovarian) [µM]	TGI (SF-539 CNS) [µM]	TGI (PC-3 prostate) [µM]	TGI (HCT-15 colon) [µM]	TGI (SK-OV-3 ovarian) [µM]
CCOC(=O)C1=C(C)N(Cc2ccc(Cl)cc2Cl)C2(O)C(OC)CC(=O)C3C(=O)N(c4ccccc4)C(=O)C132 (stereo unspecified)	12.5	4.12	16.7	2.75	6.9	9.9	20.2	3.69	7.01	16.2	6.19	16.9	12.7	15.1	2.64	–
COc1cccc(N2CCc3c(C)c(C#N)c4nc5ccccc5n4c32)c1	> 100	> 100	–	> 100	> 100	> 100	> 100	> 100	> 100	> 100	> 100	> 100	> 100	> 100	> 100	> 100
N[C@H]1CCc2c1nc1c(c2-c2ccccc2)CC[C@@H]1N	> 100	45.6	> 100	> 100	46.4	> 100	45.5	55.3	40.1	29.7	> 100	31.4	31.1	29.5	> 100	–
Cn1cc(C=C(C#N)C#N)c(=O)n(C)c1=O	> 100	> 100	> 100	> 100	–	> 100	> 100	> 100	> 100	> 100	> 100	> 100	> 100	> 100	> 100	> 100
C[C@H](C(=O)N1C(=O)O[C@@H](c2ccccc2)[C@H]1C)[C@H](c1ccccc1)N(Cc1ccccc1)OC(=O)c1ccccc1	> 100	> 100	–	> 100	> 100	> 100	90.9	> 100	73.7	69.2	> 100	> 100	> 100	> 100	> 100	> 100
O=c1oc2ccccc2c(O)c1C(c1ccc([N+](=O)[O-])cc1)c1c(O)c2ccccc2oc1=O	> 100	> 100	> 100	> 100	> 100	> 100	–	> 100	> 100	> 100	> 100	> 100	–	> 100	> 100	–
S=C(NNC1=NCCCCN1)Nc1ccccc1	> 100	65.8	> 100	> 100	> 100	> 100	> 100	> 100	–	> 100	> 100	> 100	> 100	> 100	> 100	> 100
C=C(Cl)C(Br)(CCl)CCC(Cl)C(C)C (stereo unspecified) (tested in a mixture with another compound)	3.42	3.92	29.6	3.25	–	3.08	19.6	3.14	2.97	3.9	–	3.73	3.72	10.6	–	8.85
